In patent US20250145715A1, “B7-H3 TARGETING FUSION PROTEINS AND METHODS OF USE THEREOF” (GT Biopharma, Inc., priority 2021, published 2025):

Experiments:
H929 cells = test: IncuCyte Zoom NK cell killing of H929; assay type: cell-based, human
Excerpt: FIGS. 8A-8D illustrate the ability of peripheral blood NK cells with or without B7-H3-TriKE to kill myeloma cells in live imaging IncuCyte Zoom assays. FIG. 8A is a graph showing the effects with effector:target (E:T) ratios of 2:1 and 4:1 on H929 cells. FIG. 8B is a graph showing the effects with effector:target (E:T) ratios of 2:1 and 4:1 on MM1S cells. FIG. 8C is a graph showing the effects with effector:target (E:T) ratios of 2:1 and 4:1 on RPMI-8226 cells. FIG. 8D is a graph showing the effects with effector:target (E:T) ratios of 2:1 and 4:1 on U266 cells.
FIGS. 9A-9D illustrate the efficacy of B7-H3-TriKE with the proteasome inhibitor bortezomib (10 nM) and the immunomodulatory drug lenalidomide (5 μM). FIG. 9A is a graph showing the effect of the combination therapy on H929 cells after 48 hours. FIG. 9B is a graph showing the effect of the combination therapy on RPMI-8226 cells after 48 hours. FIG. 9C is a graph showing the effect of the combination therapy on MM1S cells after 48 hours. FIG. 9D is a graph showing the effect of the combination therapy on U266 cells after 48 hours.
The ability of peripheral blood NK cells with or without B7-H3-TriKE to kill myeloma cells was compared in live imaging IncuCyte Zoom assays with escalating doses of TriKE. Maximal killing occurred with 3 nM concentration.
The efficacy of B7-H3-TriKE with the proteasome inhibitor bortezomib (10 nM) and the immunomodulatory drug lenalidomide (5 μM) was also tested. Cytotoxicity curves were compared by repeated measures ANOVA and performed in triplicate.

[1] = tested on: NCI-H322 lung cancer cells; test: NK cell CD107a / IFNγ flow cytometry against NCI-H322; assay type: cell-based, human; conditions: normal donor PBMCs, vs controls
Excerpt: FIGS. 24A-24F illustrate that B7-H3 TriKE enhances NK cell function against lung tumor targets. FIG. 24A is a graph showing pooled analysis of proportion of NK cells from healthy donors expressing CD107a+ against A549(N=6) tumor targets. FIG. 24B is a graph showing pooled analysis of proportion of NK cells from healthy donors expressing IFNγ against A549(N=6) tumor targets. FIG. 24C is a graph showing pooled analysis of proportion of NK cells from healthy donors expressing CD107a+ against NCI-H322 (N=5) tumor targets. FIG. 24D is a graph showing pooled analysis of proportion of NK cells from healthy donors expressing IFNγ against NCI-H322 (N=5) tumor targets. FIG. 24E is a graph showing pooled proportion of NK cells from healthy donors (black bars) or lung cancer patients (white bars) expressing CD107a+ against NCI-H460 (N=7). FIG. 24F is a graph showing pooled proportion of NK cells from healthy donors (black bars) or lung cancer patients (white bars) expressing IFNγ against NCI-H460 (N=7). ** p<0.01, *** p<0.001, and **** p<0.0001.
ADCC was measured in a flow cytometry assay by evaluating degranulation via CD107a (lysosomal-associated membrane protein LAMP-1) and intracellular IFNγ production. […] Samples were washed and evaluated in an LSRII flow cytometer (BD Biosciences, San Jose, CA, USA). […]

| Substance | NK cell killing of H929 (H929 cells; E:T 2:1) | NK cell killing of H929 (H929 cells; E:T 4:1) | NK cell activation against NCI-H322 [1] |
| --- | --- | --- | --- |
| B7-H3 TriKE: camelid nanobodies targeting CD16 and B7-H3 joined by IL-15 and two linkers; sequence table equates the name with cam1615B7-H3 | more potently killed | no difference in killing |  |
| cam1615B7-H3: second-generation TriKE: humanized camelid anti-CD16 VHH, human wild-type IL-15, anti-B7-H3 mAb 376.96 scFv; SEQ ID NO:1 |  |  | significantly and robustly improved NK cell activation |
